Data reported in patent publication US20230285393A1, “METHOD FOR TREATING GRAFT VERSUS HOST DISEASE CAUSED BY HEMATOPOIETIC STEM CELL TRANSPLANTATION” (BEIJING TIDE PHARMACEUTICAL CO., LTD., priority 2020, published 2023).

How the values were obtained:
ROCK2 = ROCK2 (Homo sapiens (Human), UniProt O75116); assay: ROCK2 Kinase Activity Assay (HTRF KinEASE-STK S2 kit); type: biochemical
Description: The kinase IC50 was determined by a commercialized CISBIO kinase detection kit, HTRF KinEASE-STK S2 kit (62ST2PEC). ROCK2 (01-119) employed in the reaction was purchased from Carna Biosciences.
Before the assay, the following working solutions as needed were formulated with corresponding reagents according to the instruction of the kinase detection kit: 1×kinase buffer, 5×STK-S2 substrate working solution (1.5 μM) and 5×ATP working solution (1.5 μM), 5×ROCK2 kinase working solution, 4×Streptavidin-XL665 working solution, and 4×STK-Ab-Cryptate 2 detection solution. Then the assay was performed according to the following procedure.
A solution of a compound at a concentration of 10000 nM was prepared with the 1×kinase buffer containing 2.5% DMSO. Gradient dilution of the solution of the compound was performed with the kinase buffer containing DMSO, so as to obtain solutions of a test compound at 9 different concentrations. In addition to wells of test compounds, a positive well (containing all the reagents except the compound) and a negative well (containing all the reagents except the test compound and kinase) were set. Except for the control wells (positive and negative wells), a solution of a test compound (4 μL) was added to each of the reaction wells, and a solution of 2.5% DMSO was added to the control wells. Then the substrate (2 μM, i.e., 2 μL 5×STK-S2 substrate working solution) was added to each of the reaction wells. The 5×ROCK2 kinase working solution (2 μL, containing 1.4 ng ROCK2 kinase) was added to each of the reaction wells except for the negative well, the volume of which was made up with the 1×kinase buffer (2 μL). The 5×ATP working solution (2 μL) was added to each of the reaction wells, and the mixtures were incubated at room temperature for 2 hours. After the kinase reaction was complete, the 4×Streptavidin-XL665 working solution was added to each of the reaction wells, the solutions were mixed, followed by immediate addition of the 4×STK-Ab-Cryptate 2 detection solution (5 μL), and the mixtures were incubated at room temperature for 1 hour. The fluorescence signal was read on ENVISION (Perkinelmer) (excitation wavelength: 320 nm, and emission wavelength: 665 nm and 615 nm). The inhibitory rate in each well was calculated based on the fluorescence intensity value: ER (Emission Ratio)=(fluorescence intensity at 665 nm/fluorescence intensity at 615 nm); inhibitory rate=(ERpositive−ERtest compound)/(ERpositive−ERnegative)*100%. Curves were plotted and fitted to obtain the median inhibitory concentration (IC50) of each teat compound with the PRISM 5.0 software.

[1] = test system: CD4 Naïve T cells from BALB/c mice mixed with C57BL/6 dendritic cells; assay: Allogeneic Mixed Lymphocyte Reaction, inflammatory factors in supernatant; type: cell-based, mouse; settings: 125 nM, 250 nM, 500 nM, 1000 nM; 5 days of culture; compared with control group
Description: Bone marrow cells from C57BL/6 (B6) mouse were isolated and incubated with granulocyte-macrophage colony stimulating factor (GM-CSF, 20 ng/mL, Biolegend, 713704) and interleukin-4 (IL-4, 10 ng/mL, Biolegend, 10715004) for 7 days, followed by addition of 20 ng/mL lipopolysaccharide (LPS) and incubation for 24 hours, the dendritic cells (DC) were collected. The CD4 Naïve T cells from BALB/c mice were extracted and isolated with a commercial kit (Dakewe, 480039). […] CD4 Naïve T cells and 25×10^3 DC cells were mixed and cultured. Compound 007 was added to the mixed cells at four concentrations (125 nM, 250 nM, 500 nM, and 1000 nM), respectively, and a control group (to which an equal amount of the medium was added) was set. After 5 days of culture, the supernatants were collected and kits were employed for the detection of inflammatory factors (IL-6 (Duyou, 1210602), TNF-α (Duyou, 1217202), IFN-γ (Duyou, 1210002), and IL-2 (Duyou, 1210202)).

[2] = test system: irradiated BALB/c recipient mice infused with C57BL/6 donor bone marrow and spleen cells; assay: Therapeutic effect in mice: allogeneic bone marrow/spleen cell transplantation GVHD model, survival rate; type: in vivo; settings: 30 mpk oral gavage once daily for 23 days, compared with the model group
Description: Male BALB/c recipient mice were irradiated with 8.5 Gy of total body irradiation (TBI) (Gammacell 40, NORPION International Co., Ltd., irradiation source: ^137Cs). A suspension of bone marrow cells (BMC) and spleen cells (SC) from C57BL/6 (H-2b) donor mice was prepared and infused via tail vein to irradiated BALB/c recipient mice at 0.5 mL/per mouse (containing 10×10^6 bone marrow cells and 6.25×10^6 spleen cells from the allogeneic C57BL/6 (H-2b) donor mice). Subsequently, the BALB/c mice were randomly divided into two groups: a model group (G2) and a compound 007 group (G3). An irradiation group (G4) (i.e., receiving ^137Cs irradiation only without donor mouse cell suspension infusion) and a syngeneic bone marrow transplantation group (G1) (a suspension containing 10×10^6 bone marrow cells from syngeneic BALB/c mice was administered to mice in this group via tail vein infusion). G1-G4 groups comprised 9 mice per group. The mice in the model group, the irradiation group and the syngeneic bone marrow transplantation group were administered with vehicle (a 0.2% Tween-80 aqueous solution) by oral gavage, once a day for 23 days. The mice in the compound 007 group were administered with 30 mpk of compound 007 by oral gavage, once daily for 23 days from the first day of model establishment. The survival rate of the animals was recorded daily.

ROCK2, sequence (O75116 1-553 limits assumed): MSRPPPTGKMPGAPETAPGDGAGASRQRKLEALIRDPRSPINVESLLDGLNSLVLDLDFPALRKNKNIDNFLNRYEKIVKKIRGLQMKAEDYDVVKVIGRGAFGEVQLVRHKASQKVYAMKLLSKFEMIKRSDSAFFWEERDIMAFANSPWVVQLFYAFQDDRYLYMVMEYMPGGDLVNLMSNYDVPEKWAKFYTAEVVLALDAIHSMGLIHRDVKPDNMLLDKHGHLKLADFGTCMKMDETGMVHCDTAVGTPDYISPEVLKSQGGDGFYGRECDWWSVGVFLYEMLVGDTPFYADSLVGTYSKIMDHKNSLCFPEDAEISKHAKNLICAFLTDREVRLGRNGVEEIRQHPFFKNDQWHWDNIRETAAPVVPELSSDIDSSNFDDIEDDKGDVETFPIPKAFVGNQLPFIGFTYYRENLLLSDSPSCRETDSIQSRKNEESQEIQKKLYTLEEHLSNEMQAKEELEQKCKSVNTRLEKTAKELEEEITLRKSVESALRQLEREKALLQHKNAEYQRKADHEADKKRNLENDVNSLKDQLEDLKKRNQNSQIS

Structure (SMILES) | IC50 (ROCK2) [nM] | levels of the inflammatory factors (IL-6, TNF-α, IFN-γ, IL-2) [1] | survival rate [2]
Cn1c(C(=O)N2CC(F)(F)C2)cc2ccc(-c3nccc(Nc4ccc(-c5cn[nH]c5)cc4)n3)cc21 [Compound 007] | 33 | significantly reduced the levels of the inflammatory factors | significantly improved the survival rate
O=C(N1Cc2ccc(-c3nccc(Nc4ccc(-c5cn[nH]c5)cc4)n3)cc2C1)N1CC(F)(F)C1 [Compound 022] | 75 |  | 
Fc1cc(Nc2ccnc(-c3ccc4cc(-c5nccs5)[nH]c4c3)n2)ccc1-c1cn[nH]c1 [Compound 128] | 27 |  | 
O=C(c1cc2ccc(-c3nccc(Nc4ccc(-c5cn[nH]c5)c(F)c4)n3)cc2[nH]1)N1CC(F)(F)C1 [Compound 010] | 61 |  | 
O=C(C1CC(F)(F)C1)N1Cc2ccc(-c3nccc(Nc4ccc(-c5cn[nH]c5)cc4)n3)cc2C1 [Compound 020] | 44 |  | 
O=C(C1CC(F)(F)C1)N1Cc2ccc(-c3ncc(F)c(Nc4ccc(-c5cn[nH]c5)cc4)n3)cc2C1 [Compound 021] | 45 |  | 

Now from value to molecule, other results behind:

IC50 (ROCK2) [nM] | Structure (SMILES) | levels of the inflammatory factors (IL-6, TNF-α, IFN-γ, IL-2) [1] | survival rate [2]
9 | Cn1c(C(=O)N2CC(F)(F)C2)cc2ccc(-c3nccc(Nc4ccc(-c5cn[nH]c5)c(F)c4)n3)cc21 [Compound 011] |  | 
24 | O=C(c1cc2ccc(-c3ncc(F)c(Nc4ccc(-c5cn[nH]c5)cc4)n3)cc2[nH]1)N1CC(F)(F)C1 [Compound 008] |  | 
34 | O=C(c1cc2ccc(-c3nccc(Nc4ccc(-c5cn[nH]c5)cc4)n3)cc2[nH]1)N1CC(F)(F)C1 [Compound 006] |  | 
12 | Cn1c(C(=O)N2CC(F)(F)C2)cc2ccc(-c3ncc(F)c(Nc4ccc(-c5cn[nH]c5)cc4)n3)cc21 [Compound 009] |  | 
